# From article PMC8766756, “Insights on Cancer Cell Inhibition, Subcellular Activities, and Kinase Profile of Phenylacetamides Pending 1H-Imidazol-5-One Variants” (Frontiers in Pharmacology, 2022)
# Where “and” joins values, the source holds several entries; their conditions need not be identical. Equal values may be shown once.
# What was measured:
# Experiment in all cases: PamChip tyrosine kinase microarray
# Assay type in all cases: biochemical
# Settings in all cases: 0.1 µM, HL60 lysate
# [1] = target: T1, Axl (P30530) (Homo sapiens, UniProt P30530)
# T1 construct: purchased PamGene (PamChip PTK array, Upstream Kinase Analysis)
# T1 sequence (P30530 26-894): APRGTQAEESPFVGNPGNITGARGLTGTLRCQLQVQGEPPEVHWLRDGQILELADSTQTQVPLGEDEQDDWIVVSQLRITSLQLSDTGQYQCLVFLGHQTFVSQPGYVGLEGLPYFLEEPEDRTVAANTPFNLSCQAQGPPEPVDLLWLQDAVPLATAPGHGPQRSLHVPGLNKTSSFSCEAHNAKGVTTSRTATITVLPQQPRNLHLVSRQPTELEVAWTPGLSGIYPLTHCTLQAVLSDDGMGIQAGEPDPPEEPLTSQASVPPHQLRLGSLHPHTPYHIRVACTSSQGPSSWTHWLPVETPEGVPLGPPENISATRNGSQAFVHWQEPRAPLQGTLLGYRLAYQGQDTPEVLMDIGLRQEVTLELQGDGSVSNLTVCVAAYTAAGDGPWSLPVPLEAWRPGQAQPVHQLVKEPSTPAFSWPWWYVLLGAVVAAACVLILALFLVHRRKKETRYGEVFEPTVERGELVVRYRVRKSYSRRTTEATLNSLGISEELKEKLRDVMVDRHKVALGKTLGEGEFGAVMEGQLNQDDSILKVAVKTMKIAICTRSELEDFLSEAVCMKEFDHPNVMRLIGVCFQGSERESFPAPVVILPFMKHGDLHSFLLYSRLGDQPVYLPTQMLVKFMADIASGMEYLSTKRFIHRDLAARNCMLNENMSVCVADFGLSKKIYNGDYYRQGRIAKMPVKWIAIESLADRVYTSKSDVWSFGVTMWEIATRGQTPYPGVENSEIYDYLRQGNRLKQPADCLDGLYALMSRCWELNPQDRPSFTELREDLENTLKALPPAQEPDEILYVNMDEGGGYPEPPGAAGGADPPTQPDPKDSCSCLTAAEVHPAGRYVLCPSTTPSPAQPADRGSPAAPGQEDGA
# How it was run: (§1)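 HL60 (AML) cell lysate was spiked with compound at 0.001, 0.01, 0.1, 1, 10 and 50 µM, or 2% v/v DMSO as control, then profiled in technical replicates on a tyrosine kinase peptide array of 196 phosphosites. Kinase activity was inferred from peptide-set changes using an upstream kinase tool.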
# [2] = target: T2, Fgr (P09769) (Homo sapiens, UniProt P09769)
# T2 construct: purchased PamGene (PamChip PTK array, Upstream Kinase Analysis)
# How it was run: as §1
# [3] = target: T3, JAK1~b (P23458) (Homo sapiens, UniProt P23458)
# T3 construct: JAK1~b (P23458); purchased PamGene (PamChip PTK array, Upstream Kinase Analysis)
# How it was run: as §1
# [4] = target: T4, Ros (P08922) (Homo sapiens, UniProt P08922)
# T4 construct: purchased PamGene (PamChip PTK array, Upstream Kinase Analysis)
# How it was run: as §1
# [5] = target: T5, TXK (P42681) (Homo sapiens, UniProt P42681)
# T5 construct: purchased PamGene (PamChip PTK array, Upstream Kinase Analysis)
# T5 sequence (P42681 1-527): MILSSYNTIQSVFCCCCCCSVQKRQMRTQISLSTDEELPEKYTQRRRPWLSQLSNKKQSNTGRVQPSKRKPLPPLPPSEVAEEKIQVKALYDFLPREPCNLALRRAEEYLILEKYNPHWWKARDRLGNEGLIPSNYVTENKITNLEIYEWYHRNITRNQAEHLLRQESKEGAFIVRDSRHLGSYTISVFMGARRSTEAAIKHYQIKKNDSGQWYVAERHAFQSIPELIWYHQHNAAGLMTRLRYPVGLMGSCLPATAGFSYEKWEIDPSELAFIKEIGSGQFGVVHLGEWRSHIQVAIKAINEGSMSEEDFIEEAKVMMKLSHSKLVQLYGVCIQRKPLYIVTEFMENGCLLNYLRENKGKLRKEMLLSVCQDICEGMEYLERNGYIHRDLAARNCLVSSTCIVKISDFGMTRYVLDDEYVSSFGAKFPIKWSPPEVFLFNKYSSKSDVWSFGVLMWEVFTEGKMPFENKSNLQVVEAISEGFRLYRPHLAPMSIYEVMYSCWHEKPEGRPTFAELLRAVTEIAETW
# How it was run: as §1
# [6] = target: T6, Yes (P07947) (Homo sapiens, UniProt P07947)
# T6 construct: purchased PamGene (PamChip PTK array, Upstream Kinase Analysis)
# How it was run: as §1
# T2 sequence (P09769 whole entry): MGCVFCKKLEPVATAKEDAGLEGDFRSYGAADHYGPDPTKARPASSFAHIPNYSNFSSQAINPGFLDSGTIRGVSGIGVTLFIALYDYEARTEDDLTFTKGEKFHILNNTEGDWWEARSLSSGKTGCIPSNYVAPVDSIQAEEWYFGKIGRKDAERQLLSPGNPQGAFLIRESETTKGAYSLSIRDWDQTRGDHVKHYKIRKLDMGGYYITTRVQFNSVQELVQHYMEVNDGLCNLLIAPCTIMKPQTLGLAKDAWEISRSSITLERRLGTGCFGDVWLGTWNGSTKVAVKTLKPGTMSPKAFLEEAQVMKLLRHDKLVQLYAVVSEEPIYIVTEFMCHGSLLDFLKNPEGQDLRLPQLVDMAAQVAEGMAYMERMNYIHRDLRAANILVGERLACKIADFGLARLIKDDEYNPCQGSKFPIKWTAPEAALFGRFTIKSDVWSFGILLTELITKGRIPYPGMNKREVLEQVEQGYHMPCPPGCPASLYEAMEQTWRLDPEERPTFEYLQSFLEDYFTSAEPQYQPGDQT
# T6 sequence (P07947 whole entry): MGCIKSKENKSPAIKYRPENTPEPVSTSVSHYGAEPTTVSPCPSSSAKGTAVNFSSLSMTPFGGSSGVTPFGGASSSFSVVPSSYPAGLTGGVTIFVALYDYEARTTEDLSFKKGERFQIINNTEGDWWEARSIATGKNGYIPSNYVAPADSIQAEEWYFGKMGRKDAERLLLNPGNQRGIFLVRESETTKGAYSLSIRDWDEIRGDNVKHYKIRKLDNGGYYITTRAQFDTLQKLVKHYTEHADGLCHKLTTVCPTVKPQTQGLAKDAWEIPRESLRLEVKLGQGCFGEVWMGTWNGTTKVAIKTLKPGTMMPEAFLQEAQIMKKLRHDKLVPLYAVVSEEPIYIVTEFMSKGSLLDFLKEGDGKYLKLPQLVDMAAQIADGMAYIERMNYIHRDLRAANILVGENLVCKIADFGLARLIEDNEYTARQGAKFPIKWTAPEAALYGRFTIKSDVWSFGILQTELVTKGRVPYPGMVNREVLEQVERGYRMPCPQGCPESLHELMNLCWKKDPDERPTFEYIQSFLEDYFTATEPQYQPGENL
# T3 sequence (P23458 whole entry): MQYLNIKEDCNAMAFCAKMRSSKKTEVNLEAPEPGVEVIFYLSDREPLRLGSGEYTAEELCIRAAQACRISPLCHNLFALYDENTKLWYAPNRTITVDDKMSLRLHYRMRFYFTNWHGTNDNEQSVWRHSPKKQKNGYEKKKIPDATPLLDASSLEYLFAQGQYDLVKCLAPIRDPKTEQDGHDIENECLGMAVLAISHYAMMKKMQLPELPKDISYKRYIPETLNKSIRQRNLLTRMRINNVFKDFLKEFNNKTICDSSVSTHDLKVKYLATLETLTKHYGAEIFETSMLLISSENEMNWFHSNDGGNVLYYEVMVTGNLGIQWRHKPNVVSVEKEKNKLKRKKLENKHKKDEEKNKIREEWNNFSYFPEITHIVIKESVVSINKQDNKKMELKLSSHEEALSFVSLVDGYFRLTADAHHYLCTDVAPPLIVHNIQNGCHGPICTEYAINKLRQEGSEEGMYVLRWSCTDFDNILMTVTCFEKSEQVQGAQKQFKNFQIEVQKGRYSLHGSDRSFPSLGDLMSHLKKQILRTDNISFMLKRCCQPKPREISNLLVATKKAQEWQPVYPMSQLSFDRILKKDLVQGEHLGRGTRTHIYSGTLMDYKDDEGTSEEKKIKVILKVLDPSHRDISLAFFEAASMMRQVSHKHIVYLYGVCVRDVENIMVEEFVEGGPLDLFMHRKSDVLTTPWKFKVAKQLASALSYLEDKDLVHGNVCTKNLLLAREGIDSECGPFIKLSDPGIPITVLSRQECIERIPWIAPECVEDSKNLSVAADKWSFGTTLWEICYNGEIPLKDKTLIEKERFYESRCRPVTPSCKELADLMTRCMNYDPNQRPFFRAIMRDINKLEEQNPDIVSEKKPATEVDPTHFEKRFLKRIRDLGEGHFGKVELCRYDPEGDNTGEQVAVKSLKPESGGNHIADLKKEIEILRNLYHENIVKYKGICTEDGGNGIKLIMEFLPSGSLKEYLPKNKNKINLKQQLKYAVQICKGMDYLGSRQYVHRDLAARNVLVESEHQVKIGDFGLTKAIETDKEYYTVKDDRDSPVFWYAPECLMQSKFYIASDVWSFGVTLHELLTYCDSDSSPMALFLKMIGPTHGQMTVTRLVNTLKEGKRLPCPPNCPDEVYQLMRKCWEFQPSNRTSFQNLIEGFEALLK
# T4 sequence (P08922 28-2347): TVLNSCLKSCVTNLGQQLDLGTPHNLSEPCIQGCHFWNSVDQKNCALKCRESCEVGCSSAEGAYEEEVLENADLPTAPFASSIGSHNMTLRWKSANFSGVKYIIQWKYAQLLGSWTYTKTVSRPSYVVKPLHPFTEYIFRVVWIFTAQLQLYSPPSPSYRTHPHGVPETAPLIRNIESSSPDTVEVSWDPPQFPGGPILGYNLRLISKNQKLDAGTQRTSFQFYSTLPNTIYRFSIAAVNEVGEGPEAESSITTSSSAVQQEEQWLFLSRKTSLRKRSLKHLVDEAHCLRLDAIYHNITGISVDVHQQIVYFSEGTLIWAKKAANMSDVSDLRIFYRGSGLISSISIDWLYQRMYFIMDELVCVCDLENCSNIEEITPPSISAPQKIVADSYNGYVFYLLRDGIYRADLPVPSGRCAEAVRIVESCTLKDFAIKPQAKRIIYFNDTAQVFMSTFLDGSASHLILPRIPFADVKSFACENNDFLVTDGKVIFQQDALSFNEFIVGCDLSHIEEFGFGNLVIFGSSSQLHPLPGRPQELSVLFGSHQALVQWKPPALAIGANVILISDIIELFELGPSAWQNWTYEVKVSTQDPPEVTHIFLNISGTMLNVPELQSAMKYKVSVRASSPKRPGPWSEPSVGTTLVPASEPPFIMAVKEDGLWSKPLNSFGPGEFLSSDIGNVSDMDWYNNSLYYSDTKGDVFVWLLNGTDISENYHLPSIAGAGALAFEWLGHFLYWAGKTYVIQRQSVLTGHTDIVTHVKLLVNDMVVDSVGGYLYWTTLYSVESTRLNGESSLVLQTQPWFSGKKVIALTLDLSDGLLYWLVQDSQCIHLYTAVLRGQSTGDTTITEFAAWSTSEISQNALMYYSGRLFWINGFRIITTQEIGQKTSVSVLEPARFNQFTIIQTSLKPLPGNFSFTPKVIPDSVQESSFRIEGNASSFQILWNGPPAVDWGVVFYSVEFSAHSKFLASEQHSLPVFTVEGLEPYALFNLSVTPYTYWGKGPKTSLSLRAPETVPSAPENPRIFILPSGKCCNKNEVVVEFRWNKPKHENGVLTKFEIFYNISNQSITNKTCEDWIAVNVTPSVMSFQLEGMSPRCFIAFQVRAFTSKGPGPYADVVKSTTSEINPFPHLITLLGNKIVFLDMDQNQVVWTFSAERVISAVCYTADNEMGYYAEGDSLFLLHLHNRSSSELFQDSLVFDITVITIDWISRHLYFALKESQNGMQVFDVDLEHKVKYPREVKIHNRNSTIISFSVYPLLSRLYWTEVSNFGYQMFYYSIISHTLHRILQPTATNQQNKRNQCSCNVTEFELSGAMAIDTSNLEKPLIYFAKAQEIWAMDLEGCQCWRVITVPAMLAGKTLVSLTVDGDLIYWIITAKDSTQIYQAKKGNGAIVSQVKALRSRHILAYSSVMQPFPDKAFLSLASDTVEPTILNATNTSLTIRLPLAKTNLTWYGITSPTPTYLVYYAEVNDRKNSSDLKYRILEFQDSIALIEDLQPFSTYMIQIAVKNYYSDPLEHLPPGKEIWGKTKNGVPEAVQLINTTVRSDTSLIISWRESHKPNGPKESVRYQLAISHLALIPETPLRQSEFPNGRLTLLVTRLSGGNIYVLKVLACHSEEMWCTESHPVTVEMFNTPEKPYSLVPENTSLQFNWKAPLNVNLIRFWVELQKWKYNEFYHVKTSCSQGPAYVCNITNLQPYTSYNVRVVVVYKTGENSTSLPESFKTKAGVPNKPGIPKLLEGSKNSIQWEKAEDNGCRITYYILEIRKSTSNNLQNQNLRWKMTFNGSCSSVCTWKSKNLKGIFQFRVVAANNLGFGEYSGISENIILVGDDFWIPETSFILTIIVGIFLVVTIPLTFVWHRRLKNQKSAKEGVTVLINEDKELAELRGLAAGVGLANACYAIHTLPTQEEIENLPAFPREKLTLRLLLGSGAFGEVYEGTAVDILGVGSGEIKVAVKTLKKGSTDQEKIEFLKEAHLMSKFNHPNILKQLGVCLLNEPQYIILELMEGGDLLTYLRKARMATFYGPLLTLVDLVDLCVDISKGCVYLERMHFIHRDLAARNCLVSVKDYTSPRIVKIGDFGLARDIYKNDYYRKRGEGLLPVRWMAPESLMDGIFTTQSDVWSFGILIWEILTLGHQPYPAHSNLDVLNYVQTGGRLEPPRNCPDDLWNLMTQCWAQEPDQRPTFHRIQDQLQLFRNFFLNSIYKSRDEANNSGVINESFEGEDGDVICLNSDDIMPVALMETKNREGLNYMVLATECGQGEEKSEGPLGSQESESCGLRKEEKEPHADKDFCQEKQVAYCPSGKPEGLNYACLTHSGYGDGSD
smiles,measurement,setting,value
"COc1ccc(/C=C2\N=C(C)N(c3ccc(CC(=O)NCc4ccccc4)cc3)C2=O)cc1 [Compound 4c, (Z)-N-Benzyl-2-(4-(4-(4-methoxybenzylidene)-2-methyl-5-oxo-4,5-dihydro-1H-imidazol-1-yl)phenyl)acetamide]",Mean Final score (Kinase score),[1],2.569
same,Mean Kinase Statistic,[1],-1.219
same,Mean Significance Score,[1],2.048
same,Mean Specificity Score,[1],0.5684
same,Mean Final score (Kinase score),[2],2.293
same,Mean Kinase Statistic,[2],-1.161
same,Mean Significance Score,[2],1.8658
same,Mean Specificity Score,[2],0.2752
same,Mean Significance Score,[3],1.955
same,Mean Specificity Score,[3],1.609
same,Mean Final score (Kinase score),[3]; listed as KIM-161,3.51 and 3.514
same,Mean Significance Score,[4],1.955
same,Mean Specificity Score,[4],0.9862
same,Mean Final score (Kinase score),[4]; listed as KIM-161,2.90 and 2.9031
same,Mean Significance Score,[5],2.048
same,Mean Specificity Score,[5],0.6377
same,Mean Final score (Kinase score),[5]; listed as KIM-161,2.68
same,Mean Final score (Kinase score),[6],1.8671
same,Mean Kinase Statistic,[6],-0.9897
same,Mean Significance Score,[6],1.824
same,Mean Specificity Score,[6],0.04992
